Test results: ChEMBL document CHEMBL3227956 (J Med Chem, 1979)

Columns and labels:
L1210 [1] = experiment: Antitumor activity against mouse L1210 cells allografted in mouse assessed as increase in survival rate at 500 mg/kg, ip administered on day 1 measured on day 30 relative to control; format: functional; settings: route intraperitoneal
Mus musculus [2] = experiment: Toxicity in mouse allografted with mouse L1210 cells assessed as survival rate at 500 mg/kg, ip administered on day 1 measured on day 30 relative to control; format: organism-based; set-up: dose 500 mg/kg, route intraperitoneal; settings: in vivo
L1210 [3] = experiment: Antitumor activity against mouse L1210 cells allografted in mouse assessed as increase in survival rate at 62.5 mg/kg, ip administered on day 1 measured on day 30 relative to control; format: functional; settings: route intraperitoneal
[4] = Hydrolytic stability in CDCl3 assessed as formation of 3-ammonio-2-bromopropyl phenylphosphonate measured within 2 hrs by NMR analysis; format: physicochemical
[5] = Hydrolytic stability in D2O/Me2SO-d6 assessed as formation of 3-ammonio-2-bromopropyl phenylphosphonate at 37 degC after 24 hrs by NMR analysis; format: physicochemical
[6] = Hydrolytic stability in deuteriochloroform; format: physicochemical
L1210 [7] = experiment: Antitumor activity against mouse L1210 cells allografted in mouse assessed as increase in survival rate at 150 mg/kg, ip administered on day 1 measured on day 30 relative to control; format: functional; settings: route intraperitoneal
Mus musculus [8] = experiment: Toxicity in mouse allografted with mouse L1210 cells assessed as survival rate at 150 mg/kg, ip administered on day 1 measured on day 30 relative to control; format: organism-based; set-up: dose 150 mg/kg, route intraperitoneal; settings: in vivo
Mus musculus [9] = experiment: Toxicity in mouse allografted with mouse L1210 cells assessed as survival rate at 250 mg/kg, ip administered on day 1 measured on day 30 relative to control; format: organism-based; set-up: dose 250 mg/kg, route intraperitoneal; settings: in vivo
[10] = Toxicity in mouse allografted with mouse ADJ/PC6 cells
ADJ/PC6 = experiment: Antitumor activity against mouse ADJ/PC6 cells allografted in mouse
[11] = Therapeutic index, ratio of LD50 for mouse allografted with mouse ADJ/PC6 cells to ED90 for mouse ADJ/PC6 cells allografted in mouse
W256 [12] = experiment: Cytotoxicity against rat Walker 256 cells assessed as growth inhibition in absence of microsomal activation; settings: W256, read-out: ID50
W256 [13] = experiment: Cytotoxicity against rat Walker 256 cells assessed as growth inhibition in presence of microsomal activation; settings: W256, read-out: ID50
Mus musculus [14] = experiment: Toxicity in mouse allografted with mouse L1210 cells assessed as survival rate at 62.5 mg/kg, ip administered on day 1 measured on day 30 relative to control; format: organism-based; set-up: dose 62.5 mg/kg, route intraperitoneal; settings: in vivo

SMILES: O=P12OCCCN1CCN2CCCl (stereo not drawn)
- T/C (L1210 [1]): 105%
- Activity (Mus musculus [2]): Non-toxic

SMILES: O=P1(N2CC2)OCCCN1CCCl (stereo not drawn)
- T/C (L1210 [3]): 110%

SMILES: O=P1(c2ccccc2)NCC(Br)CO1 (stereo not drawn)
- Stability [4]: Unstable
- Stability [5]: Unstable
- Stability [6]: Stable

SMILES: O=P1(Oc2ccccc2)NCC(Br)CO1 (stereo not drawn)
- Stability [5]: Stable

SMILES: [O-][P@@+]1(Oc2ccccc2)NC[C@H](Br)CO1 (racemic)
- T/C (L1210 [7]): 113%
- Activity (Mus musculus [8]): Non-toxic

SMILES: O=P1(N(CCCl)CCCl)NCCCO1 (racemic) [CYCLOPHOSPHAMIDE ANHYDROUS]
- Activity (Mus musculus [9]): Non-toxic
- LD50 [10]: 450 mg/kg
- ED90 (ADJ/PC6): 4.75 mg/kg
- selectivity ratio [11]: 95
- IC50 (W256 [12]): > 500 µg/mL
- IC50 (W256 [13]): 0.5 µg/mL

SMILES: [O-][P@@+]1(c2ccccc2)NC[C@@H](Br)CO1 (single isomer, unassigned; fast eluting)
- Activity (Mus musculus [9]): Non-toxic

SMILES: [O-][P@@+]1(Oc2ccccc2)NC[C@@H](Br)CO1 (single isomer, unassigned; fast eluting)
- T/C (L1210 [3]): 107%
- Activity (Mus musculus [14]): Non-toxic
